Measured values: patent US20050089473A1, “Potassium channel mediated delivery of agents through the blood-brain barrier” (Cedars-Sinai Medical Center, priority 2003, published 2005)
Where a name gives a salt, the structure may show the parent alone.

Assays:
[1] = system: intracranial human glial tumors; test: Survival study, nude mice with intracranial human glial tumors; type: in vivo, mouse; settings: i.v., three consecutive doses for three days
Description: GBM-xenograft rat and mouse models were developed by intracranially implanting primary GBM cells isolated from patient brain tumor tissue. […] To investigate whether MS administration by intracarotid (i.c.) and intravenous (i.v.) routes, increases BTB permeability to different tracers, and enhances delivery to brain tumor, permeability studies were performed.
Nude mice were intracranially implanted with cells. The tumor was allowed to grow for 7 days before treatment was initiated.

GBM and RG2 brain tumors = test: GFP-adenoviral and erbB-2 antibody delivery across the BTB; type: in vivo, rat
Description: GFP-Adv constructs were prepared as described by Smith et al. (Smith, G. M., Berry, R. L., Yang, J., and Tanelian, D. Electrophysiological analysis of dorsal root ganglion neurons pre- and post-coexpression of green fluorescent protein and functional 5-HHT3 recepter. J. Neurophysiol. 77:3115-3121, 1997) with slight modifications. GFP gene was first cloned into a shuttle vector, pAdTrack-CMV, and the resultant plasmid was linearized by digesting it with restriction endonuclease Pipe I, and subsequently co-transformed into E. Coli cells with an adenoviral backbone plasmid, pAdEasy-1. Recombinant plasmids were transfected into 293 cells. The presence of recombinant adenoviruses was verified by RT-PCR. GFP-Adv (1×10^9 pfu/ml) was infused intracarotidly (i.c.) with or without MS in rats with implanted GBM. Neu rabbits polyclonal and Her-2 MAb, which are specific for rat and human erbB-2 receptors, respectively, were used. […] Her-2 MAbs bound to Her-2 receptors, in vivo was detected by incubating rat brain cryosections as per the manufacturer's (Molecular Probes, OR) procedure with Alexa Flour-647 conjugated secondary antibody (Zecon labeling kit) that specifically binds to the IgG1 fragment of Her-2 MAb. Neu antibody binding to erbB-2 receptors in RG2 brain tumor sections was detected using anti-rabbit IgG conjugated with TRITC. […]

[2] = system: RG2 tumor capillary endothelium; test: Transmission electron microscopy of vesicular transport in tumor capillary endothelium; type: in vivo, rat; settings: i.c. MS 30 μg/kg/min 15 min
Excerpt: S., Rao, […]., and Black, K. L. Regulation of blood-brain tumor barrier permeability by calcium-activated potassium channels J. Pharmacol. Exp. Ther., 301:838-851, 2002). […] S., Rao, […]., and Black, K. L. Regulation of blood-brain tumor barrier permeability by calcium-activated potassium channels J. Pharmacol. Exp. Ther., 301:838-851, 2002). Briefly, micrographs were placed on a digitizing screen and structural features measued using Scan […]TM, a computer-assisted, image analysis system (Jandel Scientific, Corte Madera, Calif.). Abluminal and luminal circumferences, areas of endothelial cytoplasm excluding nuclei and vacuoles, and mean thickness of endothelial cytoplasm were measured and compared with those in the control group. The mean thickness of endothelium was calculated by subtraction of the luminal radius from the abluminal radius, which was obtained from the areas encircled by the luminal and abluminal circumferences, respectively. The proportion of total vesicular area to the cytoplasmic area was expressed as a percentage in order to derive another parameter to characterize vesicular transport.

Nc1cc(N2CCCCC2)nc(N)[n+]1OS(=O)(=O)[O-] [MS, minoxidil sulfate]
Mean survival [1]: 27.09 ± 8.7 days | Delivery of Her-2 MAb and Neu antibody to brain tumor (GBM and RG2 brain tumors; MS 30 μg/kg/min i.c. 15 min, then antibody 1 mg/kg): enhanced delivery of Her-2 MAb selectively to GBM and Neu to RG2 | Delivery of adv-GFP to brain tumor (GBM and RG2 brain tumors; MS i.c. with GFP-Adv 1×10^9 pfu/ml, GBM nude rats): enhanced adv-GFP delivery to brain tumors | Endothelial tight junction indices in tumor capillaries [2]: did not alter the endothelial tight junction indices | Vesicular density in tumor capillary endothelium [2]: significantly increased vesicular density
